This note sets out measurements from ChEMBL document CHEMBL3045390, “Synthesis of 3-(5-bromo-2,3-dimethoxy-phenyl)-[1, 2, 4] oxadiazole analogues and their evaluation as anti-Parkinsons agents” (Med Chem Res, 2008).

Active and inactive are the calls of the source. No cut-off for these calls is given here.

Data set [1] relates to Rattus norvegicus. The data set is described as follows: Neurotoxicity inRattus norvegicus albino (rat) assessed as motor coordination at 200 mg/kg, ip after 30 min by […]. The settings on record: in vivo, 0.5 h. On the set-up: dose 200 mg/kg, route intraperitoneal. In kind it is toxicity, organism-based.
Data set [2] is described as follows: Lipophilicity, log P of the compound. The class given is physicochemical. The settings on record: octanol/water.
Data set [3] concerns Rattus norvegicus. Description: Antiparkinson's activity in Rattus norvegicus albino (rat) assessed as reduction of chlorpromazine-induced catatonia at 100 mg/kg, ip administered 30 min before chlorpromazine challenge measured up to 180 min. In kind it is functional, organism-based. On the set-up: dose 100 mg/kg.
In data set [4] the test system is Rattus norvegicus. The data set is described as follows: Antiparkinson's activity in Rattus norvegicus albino (rat) assessed as reduction of chlorpromazine-induced catatonia at 10 mg/kg, ip administered 30 min before chlorpromazine challenge measured up to 180 min. In kind it is functional, organism-based. On the set-up: dose 10 mg/kg.
Data set [5] concerns Rattus norvegicus. The data set is described as follows: Neurotoxicity inRattus norvegicus albino (rat) assessed as motor coordination at 10 mg/kg, ip after 30 min by […]. Also on record: dose 10 mg/kg, route intraperitoneal. The class given is toxicity, organism-based. The settings on record: in vivo, 0.5 h.

Usually logP stands for the decadic logarithm of the partition coefficient of the neutral form, usually between octanol and water. A low value points to lower lipophilicity. Take `COc1cc(Br)cc(-c2noc(C3CCCN(C)C3)n2)c1OC` (stereo not drawn): the Activity result with Rattus norvegicus [1] is on record as “Non-toxic”. The same molecule returned a logP in data set [2] of 4.08. In addition, in the data set with Rattus norvegicus [3], the result was Active.
Regarding `COc1cc(Br)cc(-c2noc(C3CCCN3Cc3ccccc3)n2)c1OC` (stereo not drawn), the Activity entry in the data set with Rattus norvegicus [1] is “Toxic”. The same molecule registered a log partition coefficient (logP) in data set [2] of 5.52. Moreover, the outcome with Rattus norvegicus [3] was Active.
On to `COc1cc(Br)cc(-c2noc(C3CCCN(Cc4ccccc4)C3)n2)c1OC` (stereo not drawn), for which the Activity entry in the data set on Rattus norvegicus [1] is listed as “Toxic”. Also, in data set [2], the logP was determined as 5.81. Moreover, the result in the data set on Rattus norvegicus [3] was Active.
With `NCCc1ccc(O)c(O)c1` [DOPAMINE], the result with Rattus norvegicus [4] was inactive. The Activity result with Rattus norvegicus [5] is reported as “Non-toxic”.
With `COc1cc(Br)cc(-c2noc(C3CCN(C)CC3)n2)c1OC`, the Activity result in the data set with Rattus norvegicus [1] is given as “Non-toxic”. In addition, in data set [2], the logP turned out to be 3.86. In the data set on Rattus norvegicus [3], the outcome was Active.
`COc1cc(Br)cc(-c2noc(C3CCCCN3Cc3ccccc3)n2)c1OC` (stereo not drawn): the Activity result with Rattus norvegicus [1] is “Toxic”. In data set [2], this molecule had a logP of 5.81. In addition, the outcome in the data set with Rattus norvegicus [3] was Active.
For the molecule `COc1cc(Br)cc(-c2noc(C3CCCCN3C)n2)c1OC` (stereo not drawn), the Activity result in the data set on Rattus norvegicus [1] is “Non-toxic”. In addition, in data set [2], the logP worked out at 4.21. Moreover, the outcome with Rattus norvegicus [3] was Active.
`COc1cc(Br)cc(-c2noc(C3CCN(Cc4ccccc4)CC3)n2)c1OC`: the Activity entry with Rattus norvegicus [1] is reported as “Toxic”. This molecule had a logP in data set [2] of 5.59. The outcome with Rattus norvegicus [3] was Active.
On the same counts, the results for `COc1cc(Br)cc(-c2noc(C3CCCN3C)n2)c1OC` (stereo not drawn) are “Non-toxic”, 3.79 and “Active”.
Consider `N[C@@H](Cc1ccc(O)c(O)c1)C(=O)O` [LEVODOPA], for which the result with Rattus norvegicus [4] was inactive. In addition, the Activity result in the data set with Rattus norvegicus [5] is “Non-toxic”.
